From paper PMC5613243 (Chemical Science, 2017) come the findings set out here.

The target in this assay is T1, XiaK (Streptomyces sp. SCSIO 02999, UniProt I3VFC1).
T1 sequence (I3VFC1 1-596): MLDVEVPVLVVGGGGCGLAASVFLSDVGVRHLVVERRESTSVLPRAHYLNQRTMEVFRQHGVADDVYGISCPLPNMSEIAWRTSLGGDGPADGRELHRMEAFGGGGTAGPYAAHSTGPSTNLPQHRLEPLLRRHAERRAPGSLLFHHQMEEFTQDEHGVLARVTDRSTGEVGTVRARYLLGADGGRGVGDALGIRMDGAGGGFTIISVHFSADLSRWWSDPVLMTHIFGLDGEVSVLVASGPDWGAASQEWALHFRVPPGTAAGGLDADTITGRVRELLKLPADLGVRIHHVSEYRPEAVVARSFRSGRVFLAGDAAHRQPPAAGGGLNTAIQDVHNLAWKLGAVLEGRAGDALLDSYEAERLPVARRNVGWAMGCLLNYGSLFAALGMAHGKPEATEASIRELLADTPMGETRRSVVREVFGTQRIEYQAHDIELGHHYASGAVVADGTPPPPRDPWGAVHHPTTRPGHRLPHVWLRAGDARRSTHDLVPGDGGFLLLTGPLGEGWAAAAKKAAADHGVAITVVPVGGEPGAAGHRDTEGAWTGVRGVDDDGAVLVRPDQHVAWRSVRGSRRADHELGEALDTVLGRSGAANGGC
Put plainly: release of bound flavin by heat denaturation of purified protein. Type of assay: binding. The conditions noted are these: noncovalently bound, co-purified cofactor.

For the compound `Cc1cc2nc3c(=O)[nH]c(=O)nc-3n(C[C@H](O)[C@H](O)[C@H](O)COP(=O)(O)OP(=O)(O)OC[C@H]3O[C@@H](n4cnc5c(N)ncnc54)[C@H](O)[C@@H]3O)c2cc1C` [FAD], the “release of bound flavin by heat denaturation of purified protein” value is “released the noncovalently-bound flavin adenosine dinucleotide (FAD) cofactor upon heat denaturation”.
